Patent US11779613B2, “Compositions comprising a bacterial strain of the genus Megasphera and uses thereof” (CJ BIOSCIENCE, INC., priority 2017, dated 2023)

How the values were obtained:
histone deacetylase [1] = assay: Histone deacetylase activity in HT-29 whole cells; assay type: cell-based; conditions: for total HDAC activity, pure substances: different concentrations, whole HT-29 cells and HT-29 cell lysate, FIG. 16B
Experimental: The cell line HT-29 was used because histone deacetylase is present.
Cell free supernatants of stationary phase bacterial cultures were isolated by centrifugation and filtering in a 0.22 uM filter. HT-29 cells were used 3 days' post confluence and stepped down in 1 mL DTS 24 hours prior to commencement of the experiment. The HT-29 cells were challenged with 10% cell free supernatant diluted in DTS and was is left to incubate for 48 hours. […] extraction kit and samples were snap frozen prior to HDAC activity measurement. HDAC activity was assessed fluorometrically using the Sigma Aldrich (UK) kit.
(§1) Pure cultures of bacteria were grown anaerobically in YCFA broth until they reached their stationary growth phase. Cultures were centrifuged at 5,000×g for 5 minutes and the cell-free supernatant (CFS) was filtered using a […] (Millipore, UK). 1 mL aliquots of the CFS were stored at −80° C. until use. Sodium butyrate, hexanoic and valeric acid were obtained from Sigma Aldrich (UK) and suspensions were prepared in YCFA broth.
(§2) To investigate which metabolites were responsible for the strain-induced HDAC inhibition, different concentrations of hexanoic acid, valeric acid and sodium butyrate were measured for their HDAC inhibition on whole HT-29 cells and on HT-29 cell lysate.

[2] = system: SH-SY5Y neuroblastoma cells; assay: Cell viability / neuroprotection of SH-SY5Y neuroblastoma cells with or without MPP (CCK-8); assay type: cell-based, human; conditions: compared to YCFA-MPP+ treated sample, FIG. 15
Experimental: SH-SY5Y neuroblastoma cells were purchased from ECCACC (Cat. no: 94030304) and were grown in MEM (Sigma Aldrich, cat n. M2279) supplemented with Nutrient Mixture F-12 Ham (Sigma Aldrich, cat n. N4888).
Once grown the SH-SY5Y neuroblastoma cells were plated on 96-well plate at 11,000 cells/well and incubated for 2 days. The cells were then transferred to differentiation medium (which contains FBS at 1%) and 10 uM retinoic acid (Sigma Aldrich, cat. n. R2625-100MG). Differentiation medium was replaced every other day and cells were harvested at 7 day of differentiation. Cells were pre-treated with or without MPP (Sigma Aldrich, cat. n. D048-1G) for 8 hours. Subsequently, cells were treated with 10% bacterial supernatant and incubated overnight. Cell viability was measured by using CCK-8 reagent (Sigma Aldrich, Cell Counting Kit—8, cat. n. 96992-3000TESTS-F) and read at 450 nm wavelength.
RA-differentiated SHSY-5Y cells were treated with MPP+, the active metabolite of MPTP, a chemical widely used to mimic in vitro and in vivo some of the features of PD pathology. Cell viability was measured as the rate of mitochondria respiration (FIG. 15).

histone deacetylase [3] = assay: Histone deacetylase activity in HT-29 cell lysate; assay type: biochemical; conditions: FIG. 16A/16B
Experimental: as §1, §2

Row | Structure (SMILES) | total HDAC activity, pure substances (histone deacetylase [1]) | protection from MPP+ [2] | HDAC inhibition, HT29 whole cells (histone deacetylase [1]; FIG. 16A/16B) | HDAC inhibition, HT29 cell lysates (histone deacetylase [3]) | total HDAC activity, pure substances (histone deacetylase [1]; listed as Valeric acid)
1 | CCCCCC(=O)O [hexanoic acid] | did not show significant inhibitory activity |  |  |  | 
2 | O=c1c(O)c(-c2ccc(O)c(O)c2)oc2cc(O)cc(O)c12 [quercetin, Quercetin] |  | about 20% |  |  | 
3 | CCCC(=O)[O-].[Na+] [sodium butyrate, Sodium butyrate] | significant HDAC inhibition |  | significant (P<0.05) inhibition | significant (P<0.05) inhibition | 
4 | CCCCC(=O)O [valeric acid] | significant HDAC inhibition |  |  |  | inhibited total HDAC activity
